Values of other authors in US20240390366A1, “FORMULATION AND METHOD FOR TOPICAL TREATMENT OF MYCOBACTERIUM ULCERANS IN BURULI ULCERS” (priority 2021, published 2024).

solubility in water: practically insoluble
SMILES: CC(C)/N=c1\cc2n(-c3ccc(Cl)cc3)c3ccccc3nc-2cc1Nc1ccc(Cl)cc1 [Clofazimine, clofazimine]
